Measured values: patent US20140179681A1, “METHODS AND COMPOSITIONS OF TARGETED DRUG DEVELOPMENT” (priority 2010, published 2014)
Where a name gives a salt, the structure may show the parent alone. Read-outs that look alike come from different tables or passages of the source.

Tests used:
EGFR = target: T1, EGFR (Homo sapiens, UniProt P00533); test: EGFR in-cell Western (ICW) screening protocol (EGFR inhibition assay); type: cell-based; parameters: ICW 1 / ICW 2 / ICW Avg: unit not given here; conditions: ICW assay; for ICW Avg: average of runs 1 and 2; for ICW 1: run 1; for ICW 2: run 2
T1 construct: host or cells: A431
T1 sequence (P00533 25-1210): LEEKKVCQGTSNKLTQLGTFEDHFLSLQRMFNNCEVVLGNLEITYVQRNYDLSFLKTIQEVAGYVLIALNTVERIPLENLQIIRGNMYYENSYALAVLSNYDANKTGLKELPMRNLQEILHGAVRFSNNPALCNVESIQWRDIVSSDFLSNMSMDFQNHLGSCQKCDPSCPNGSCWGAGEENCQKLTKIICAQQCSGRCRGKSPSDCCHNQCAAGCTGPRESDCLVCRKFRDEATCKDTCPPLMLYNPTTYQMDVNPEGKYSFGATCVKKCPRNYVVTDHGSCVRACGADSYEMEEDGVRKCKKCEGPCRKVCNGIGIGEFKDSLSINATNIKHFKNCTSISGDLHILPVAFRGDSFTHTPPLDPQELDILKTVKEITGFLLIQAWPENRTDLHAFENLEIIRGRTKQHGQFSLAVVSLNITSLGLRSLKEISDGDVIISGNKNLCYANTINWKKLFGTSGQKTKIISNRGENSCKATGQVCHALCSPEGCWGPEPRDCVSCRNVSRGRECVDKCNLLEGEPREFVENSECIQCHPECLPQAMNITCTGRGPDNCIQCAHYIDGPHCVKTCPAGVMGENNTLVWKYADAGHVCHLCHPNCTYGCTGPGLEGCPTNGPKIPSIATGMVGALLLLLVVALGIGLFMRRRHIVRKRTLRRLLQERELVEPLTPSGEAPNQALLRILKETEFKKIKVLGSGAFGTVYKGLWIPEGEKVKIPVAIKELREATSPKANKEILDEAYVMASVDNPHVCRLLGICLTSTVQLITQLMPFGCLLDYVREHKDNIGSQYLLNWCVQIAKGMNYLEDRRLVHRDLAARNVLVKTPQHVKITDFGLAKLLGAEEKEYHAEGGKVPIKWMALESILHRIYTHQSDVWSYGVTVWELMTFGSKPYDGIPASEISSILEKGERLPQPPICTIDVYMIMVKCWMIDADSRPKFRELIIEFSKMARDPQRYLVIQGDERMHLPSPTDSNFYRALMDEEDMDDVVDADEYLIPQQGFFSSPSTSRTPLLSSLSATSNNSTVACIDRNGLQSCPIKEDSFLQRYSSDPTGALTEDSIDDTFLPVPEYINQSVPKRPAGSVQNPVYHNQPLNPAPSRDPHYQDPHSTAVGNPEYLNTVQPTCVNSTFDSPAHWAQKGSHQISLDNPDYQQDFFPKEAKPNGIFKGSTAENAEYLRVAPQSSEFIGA
Procedure: The following example describes general EGFR in-cell Western (ICW) screening protocol. Methods are according to Chen et al. (2005) Analytical Biochemistry 338, 136-142 (incorporated herein by reference), except as otherwise noted.
Cell Plates: A431 cells (ATCC # CRL-1555) were grown in Dulbecco's Modified Eagle Medium (DMEM; ATCC #30-2002) supplemented with 10% fetal bovine serum, 105 units/ml pen/strep (Invitrogen #15140155) and 2.1 mM L-glutamine (ATCC #30-2214). Cells were seeded into 96 well tissue culture plates (BD Falcon #353948) at a density of 30,000 cells per well and incubated at 37° C. with 5% CO2 overnight. Two cell plates were prepared for each compound plate.
Serum Starvation: The cells were serum starved prior to compound addition. The media was removed by aspiration and the cells washed with PBS (200 μl/well; Invitrogen #20012-027). The PBS was removed by aspiration and replaced with 200 μl of DMEM (ATCC #30-2002) supplemented with 105 units/ml pen/strep (Invitrogen #15140155) and 2.1 mM 1-glutamine (ATCC #30-2214). The cell plates were incubated at 37° C./5% CO2 for 2 hours.
Compound Plate Preparation: The test compounds were solvated in 100% DMSO (Sigma #472301-2L) at a concentration of 25 mM. Compounds found not to be completely soluble in 100% DMSO at 25 mM were diluted to 10 mM with 100% DMSO and TFA (Fluka #91699) added to a final concentration of 0.2%. 40 μl of test compound was added to the appropriate well of a 96 well plate (Falcon #351190). As controls, 6 μM EGFR kinase inhibitor PD168393 (EMD/Calbiochem #513033) in 100% DMSO and DMSO alone were added to various wells. Prepared compound plates were stored at RT prior to use and at 4° C. long term.
Compound Dilution Plate Preparation: 250 μl of DMEM supplemented with 1 mg/ml BSA (Sigma A3059-10G) was added to the appropriate wells of a 96 well plate to prepare the compound dilution plates. Using a multichannel pipettor, 1.25 μl of compound from the compound plate was transferred into the compound dilution plate.
Compound Addition: The starve media was removed from the cell plates by aspiration. Using a multichannel pipettor, the compound dilution plates were mixed by pipetting up and down three times. 50 μl of mixed, diluted compound was added to each of two rows/columns on each of two cell plates. The cell plates with compound were incubated at 37° C./5% CO2 for 4 hours.
EGF Addition: 20 ng/ml EGF (Upstate #01-107) was prepared in DMEM supplemented with 1 mg/ml BSA. 50 μl of 20 or 0 ng/ml EGF was added to the appropriate wells without the removal of compound. The compound and EGF were mixed by pipetting up and down three times. The plates were incubated at 37° C./5% CO2 for 10 min. In some screening assays the final concentration of EGF used for simulation was 6.6, or 12.5 ng/ml rather than 10 ng/ml.
Fixation and Triton Washing: The EGF+compound was removed by aspiration and 150 μl of freshly prepared Fixation Solution (1×PBS, Sigma P3813-10PK, and 4% Formaldehyde, Pierce #28908) was immediately added. The plates were incubated at RT for 20 min without shaking. The Fixation Solution was removed by aspiration and the plates washed four times with 200 μl each of Triton Wash Solution (1×PBS, Sigma P3813-10PK, and 0.1% Triton X-100, T8787-50ML) for 5 min with gentle shaking.
Blocking and Probing: Following the last Triton Wash, the plates were blocked for 1.5 h at RT with shaking using 150 μl of Odyssey Blocking Buffer (LI-COR #927-40000). The block was removed by aspiration and 50 μl of diluted primary Ab mix was added. The plates were incubated at 4° C. overnight with gentle shaking. The plates were washed five times with 200 μl of PBST (1×PBS, Sigma P3813-10PK, and 0.1% Tween-20, Sigma P9416-50ML) for 5 min each with shaking 50 μl of diluted secondary Ab mix was added and the plates incubated at RT for 1 h with shaking. The plates were washed 5× with 200 μl of PBST for 5 min each with shaking. […]

[1] = test system: epithelial carcinoma A431 cell line; test: MTT Cell Proliferation Assay, A431 cells; type: cell-based; conditions: for IC50: first value of cell, read-out: MTT Assay IC50(A431/MDBK): A431; for MTT Assay IC50(A431/MDBK): ratio in parentheses: ratio MDBK IC50 / A431 IC50 (selectivity)
Excerpt: (§1) The following example describes the MTT Cell Proliferation Assay.
(§2) The MTT Cell Proliferation Assay is a colorimetric assay system that measures the reduction of the tetrazolium salt MTT (3-(4,5-dimethylthiazol-2-yl)-2,5-diphenyltetrazolium bromide) into insoluble formazan crystals, produced by the mitochondria of viable cells. […] The color can then be quantified by spectrophotometric means. Among the applications for the method are drug sensitivity, cytotoxicity, response to growth factors, and cell activation. The reduction of tetrazolium salts is now recognized as a safe, accurate alternative to radiometric testing.
(§3) Two replicates on each cell plate and 2 duplicate plates gave 4 individual replicates of each concentration, in each cell line. Concentrations were diluted in 100% DMSO from 25 mM stocks.
(§4) Twelve 96 well plates of each cell line were plated. Plating was done by dislodging cells as in passage protocol, counting on a hemocytometer, re-suspending in standard growth media, and plating using a multichannel pippetor.
(§5) 16 μl of 25 mM stock+34 μl DMSO=8 mM starting concentrations, and serial diluted as with test compounds in same plate. […] Two replicates of each concentrations was run on each cell plate. All compound addition and cell treatments were done using aseptic technique under a laminar flow aseptic hood.
(§6) Control: 0.5% DMSO in treatment media was used as the control.
(§7) MTT dye (Thiazolyl Blue Tetrazolium Bromide, Sigma cat #M5655) stock was prepared in bulk and stored at 4° C. for use: 5 mgs/ml sterile PDS, shielded from light. 4 ul of this stock per 100 uls treatment media per well was used.
(§8) Plates were incubated overnight prior to treatment, with treatment day=Day 0. Compound treatments were prepared prior to washing cells to minimize time cells were dry at room temperature after final aspiration. Compounds were diluted in 100% DMSO in 96 well polypropylene plates: 40 μl 25 mM stock+10 μl DMSO=20 mM; 20 μl of 20 mM+30 μl DMSO=8 mM; 20 μl of 8 mM+30 μl DMSO=3.2 mM; 20 μl of 3.2 mM+30 μl DMSO=1.3 mM; 20 μl of 1.3 mM+30 μl DMSO=0.51 mM.
(§9) 5.0 μl/ml were added to treatment media, in sterile, 2.2 ml deep well plates=0.5% dmso final. Ten μl of each dmso concentration was added to 2.0 ml of treatment media and then mixed using a 1200 μl multichannel pipettor. Cell plates were treated from the deep well plates. Treatment media was standard growth media containing 0.5% FBS and standard additions. This reduced FBS concentration allowed for a slower growth rate in cells.
(§10) Media was aspirated from cell plates, and washed with 200 μl/well sterile PBS. Aspirated PBS wash, and cell plates were treated with 200 μl of compound/treatment media per well, and incubated at 37° C., 5% CO2 for 3 days.
(§11) Prior to harvesting, visual observations were made under an inverted microscope. Plates were harvested by: aspirating the growth media; adding back MTT dye/100 μl treatment media; and incubating plates at 37° C. for 1 hour. MTT dye was aspirated. 100 μl/well dmso was added, and then shaken on a Bellco plate shaker for 5 minutes, at 4.5 setting.
(§12) Plates were read in a Tecan Sunrize UV plate reader, at 560 nm. Settings: Read mode, Outside Normal 2 sec; Shake settle time 3 sec. Data is reported as % inhibition, calculated for individual plates using control values from that plate.

MDBK line = test: MTT Cell Proliferation Assay, MDBK cells; type: cell-based, bovine; conditions: MDBK cells, second value of cell, read-out: MTT Assay IC50(A431/MDBK): MDBK
Excerpt: as §1, §2, §3, §4, §5, §6, §7, §8, §9, §10, §11, §12

[2] = Homo sapiens, A-431, A431 cells

Structure (SMILES) | ICW Avg (EGFR) | ICW 1 (EGFR) | ICW 2 (EGFR) | IC50 [1, 2] | MTT Assay IC50(A431/MDBK): ratio in parentheses [1] | IC50 ([1]; A431 cells) | IC50 (MDBK line; Bos taurus, MDBK) | IC50 (MDBK line)
Cc1nc(Nc2nc(=O)c3c([nH]2)CCCC3)nc2c(C)cccc12 [11436 + TFA] | 59.65 | 59.16 | 60.14 | 5.86 µM | 0.48 |  | 2.8 µM | 
Cc1nc(Nc2nc(=O)cc(CSc3ccc(Cl)cc3)[nH]2)nc2ccccc12 [11445 + TFA] | 60.28 | 59.54 | 61.02 |  | 4.70 | 9.61 µM | 45.1 µM | 
Cc1nc(Nc2nc(=O)cc(CSc3ccc(Cl)cc3)[nH]2)nc2ccccc12 [11583 + TFA] | 51.10 | 47.93 | 54.26 |  | 1.00 | 47.3 µM |  | 47.3 µM

More lines, main results first:

ICW Avg (EGFR) | ICW 1 (EGFR) | ICW 2 (EGFR) | IC50 [1, 2] | MTT Assay IC50(A431/MDBK): ratio in parentheses [1] | IC50 ([1]; A431 cells) | Structure (SMILES) | IC50 (MDBK line; Bos taurus, MDBK) | IC50 (MDBK line)
39.92 | 37.43 | 42.40 | 36.9 µM | 1.20 |  | COc1ccc(-c2cc(=O)[nH]c(Nc3nc(C)c4ccccc4n3)n2)cc1OC [11471 + TFA] | 44.1 µM | 
70.65 | 67.84 | 73.46 | 11.3 µM | 0.86 |  | COc1cccc2c(C)nc(Nc3nc4c(c(=O)[nH]3)CCCC4)nc12 [11484 + TFA] | 9.72 µM | 
33.45 | 32.64 | 34.26 | 6.73 µM | 0.94 |  | COc1cccc(-c2cc(=O)[nH]c(Nc3nc(C)c4cccc(OC)c4n3)n2)c1 [11513 + TFA] | 6.32 µM | 
25.22 | 31.51 | 18.94 | 49 µM | 0.71 |  | COCc1cc(=O)nc(Nc2nc(C)c3cc(C)cc(C)c3n2)[nH]1 [11625 + TFA] | 34.7 µM | 
